We go through ten compounds from patent publication US5449783A, “Diphenylthiazole derivative” (Hisamitsu Pharmaceutical Co., Inc., priority 1993, dated 1995).

One assay relates to platelet aggregation. The note with it: as stated by prior reference A; cited from earlier work.
The conditions of assay [1]: as stated by prior reference A; cited from earlier work.
For assay [2] the following is noted: as stated by prior reference A; cited from earlier work. The source holds these as a separate data set.
For assay [3], the system named is carrageenin-induced paw edema. Put plainly: Rat carrageenin-induced paw edema experiment A (oral). The assay is classed as in vivo, Male Wistar rats. The note with it: 10 mg/kg, 1 hour before carrageenin, 3 hours after induction. As to the method: Rat (carrageenin-induced paw edema experiment A)
Male Wistar rats weighing 140 to 160 g were divided into groups each comprising 8 animals.
0.1 ml of 1% carrageenin (PICNIN A, mfd. by Zushi Kagaku K.K.) was subcutaneously injected into the right hind paw of each rat and the edema thus induced was measured with the lapse of time by using a device for measuring foot edema. A test compound was suspended in a 0.5% CMC solution and orally administered to the rat 1 hour before the injection of carrageenin. The results expressed in the inhibition ratio (average) of each test group to the control group, to which no compound had been orally administered, 3 hours after the induction of the reaction are given in Table 2.
In general terms: In the carrageenan paw model, swelling and tenderness develop within hours.

Assay [4] concerns carrageenin-induced paw edema. Description: Rat carrageenin-induced paw edema experiment B (intravenous). The note with it: 1 mg/kg, immediately before carrageenin, 3 hours after induction. In kind it is in vivo, Male Wistar rats.
Experimental: Rat (carrageenin-induced paw edema experiment B)
0.1 ml of 1% carrageenin (PICNIN A, mfd. by Zushi Kagaku K.K.) was subcutaneously injected into the right hind paw of each rat and the edema thus induced was measured with the lapse of time by using a device for measuring foot edema. A test compound was suspended in a 60% N,N-dimethylformamide solution in physiological saline and intravenously injected to the rat immediately before the injection of carrageenin.
The test system of assay [5] is carrageenin-induced paw edema. Description: Rat carrageenin-induced paw edema experiment C (injected together with carrageenin into the paw). In kind it is in vivo, Male Wistar rats. The note with it: 3 hours after induction.
Experimental: Rat (carrageenin-induced paw edema experiment C)
Male Wistar rats weighing 160 to 170 g were divided into groups each comprising 7 animals.
0.1 ml of 1% carrageenin (PICNIN A, mfd. by Zushi Kagaku K.K.) containing a test compound was subcutaneously injected into the right hind paw of each rat and the edema thus induced was measured with the lapse of time by using a device for measuring foot edema.
Assay [6] has as its system adjuvant arthritis (edema of the hind paw). Put plainly: Rat adjuvant arthritis experiment. In kind it is in vivo, male Wistar rat. The note with it: oral, 10 mg/kg once a day for 7 days. As to the method:
(Rat adjuvant arthritis experiment)
0.1 ml of 6 mg/ml Mycobacterium butyricum suspension in liquid paraffin was intracutaneously injected into the tail root of each male Wistar rat weighing about 200 g. 20 days thereafter, rats clearly suffering from arthritis in the hind paw were selected and divided into groups each comprising 7 animals.
A test compound was orally administered in a dose as specified below once a day for 7 days. Then the effect of the test compound on the adjuvant arthritis was examined by using an inhibition ratio on the edema of the hind paw as an indicator. The inhibition ratio was calculated according to the following equation.

Assay [7] concerns acetic acid-induced writhing. Description: Mouse acetic acid-induced writhing experiment. The assay is classed as in vivo, Male ddy mice. The note with it: oral, 20 mg/kg, 30 minutes before 0.6% acetic acid; writhing counted for 10 minutes. As to the method:
(Mouse acetic acid-induced writhing experiment)
Male ddy mice weighing about 23 g were divided into groups each comprising 7 to 9 animals.
30 minutes after a test compound was orally administered, a 0.6% acetic acid solution in physiological saline was intraperitoneally administered in a dose of 0.1 ml per 10 g of the body weight. From 5 minutes after the intraperitoneal administration, the frequency of writhing was counted for 10 minutes to determine the inhibition ratio by comparing with the frequency of writhing in the control group.
In general terms: Writhing tests count abdominal constrictions after an irritant is injected.

Another assay has as its target T1, prostaglandin synthetase (Ovis aries, UniProt P05979).
T1 construct: originating in sheep seminal vesicle; from tissue; host or cells: sheep seminal vesicle
T1 sequence (P05979 25-600): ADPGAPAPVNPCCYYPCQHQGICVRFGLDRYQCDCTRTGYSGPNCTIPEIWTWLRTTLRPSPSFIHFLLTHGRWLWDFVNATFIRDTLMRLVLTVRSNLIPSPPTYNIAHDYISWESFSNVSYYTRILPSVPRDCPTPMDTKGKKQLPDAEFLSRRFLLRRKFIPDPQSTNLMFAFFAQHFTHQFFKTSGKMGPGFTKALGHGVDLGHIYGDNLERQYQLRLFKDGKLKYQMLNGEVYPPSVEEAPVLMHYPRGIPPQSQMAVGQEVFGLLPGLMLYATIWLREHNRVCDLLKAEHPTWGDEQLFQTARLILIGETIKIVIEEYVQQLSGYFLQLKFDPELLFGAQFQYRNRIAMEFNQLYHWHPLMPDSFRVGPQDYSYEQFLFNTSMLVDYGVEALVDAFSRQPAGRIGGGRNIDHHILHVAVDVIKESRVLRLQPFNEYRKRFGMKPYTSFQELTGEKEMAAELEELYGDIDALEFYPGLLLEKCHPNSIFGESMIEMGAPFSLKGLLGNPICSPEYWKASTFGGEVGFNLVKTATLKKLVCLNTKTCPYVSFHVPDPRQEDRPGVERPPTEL
Put plainly: Effect of inhibiting biosynthesis of prostaglandin E2. In kind it is biochemical, sheep. The note with it: 10^-7; 10 minutes incubation.

In a further assay the test system is biosynthesis of 5-HETE. Put plainly: Effect of inhibiting biosynthesis of 5-HETE in neutrophiles. In kind it is cell-based, Hartley guinea pigs. The note with it: 10^-6; A 23187, 14C-arachidonic acid.

Experimental for biosynthesis of 5-HETE: (Effect of inhibiting biosynthesis of 5-HETE)
Hartley guinea pigs weighing 300 to 500 g were used.
0.2% oyster glycogen was intraperitoneally administered to each guinea pig and, after 16 hours, neutrophiles of the animal were harvested. […] After ceasing the reaction with 1N hydrochloric acid under ice-cooling, the reaction mixture was extracted with ethyl acetate. Then the extract was solidified by drying with nitrogen gas, dissolved in ethanol and developed on a TLC with a developer. Then the aimed part was scraped up and the radioactivity was measured with a liquid scintillation counter.
Experimental for prostaglandin synthetase: (Effect of inhibiting biosynthesis of prostaglandin E2)
To a tris buffer solution containing 50 mM of glutathione and 50 mM of epinephrine were added prostaglandin synthetase (originating in sheep seminal vesicle) and a test drug dissolved in DMSO and incubated for 10 minutes. Then the reaction was ceased with 1 N hydrochloric acid under ice-cooling and the reaction mixture was extracted with ethyl ether. Then the extract was solidified by drying with nitrogen gas, dissolved in ethanol and developed on a TLC with a developer. Then the aimed part was scraped up and the radioactivity was measured with a liquid scintillation counter.

On to `CC(=O)N(C)c1nc(-c2ccccc2)c(-c2ccccc2)s1` [2-(N-methyl-N-acetyl)amino-4,5-diphenylthiazole], for which the “platelet aggregation inhibiting effect (in words)” value in the assay on platelet aggregation is listed as “platelet aggregation inhibiting effect”. In addition, in [1], the “hypocholesterolemic effect (in words)” value is recorded as “hypocholesterolemic effect”. In addition, the “antiinflammatory and analgesic effects (in words)” value in assay [2] is “weak or scarcely any”.
Take `CNc1nc(-c2ccccc2)c(-c2ccccc2)s1` [2-methylamino-4,5-diphenyl-thiazole]: in the assay on platelet aggregation, the “platelet aggregation inhibiting effect (in words)” value is “platelet aggregation inhibiting effect”. Also, the “hypocholesterolemic effect (in words)” value in assay [1] is recorded as “hypocholesterolemic effect”. For the same compound, the “antiinflammatory and analgesic effects (in words)” value in [2] is listed as “weak or scarcely any”.
Take `c1ccc(-c2nc(N3CCOCC3)sc2-c2ccccc2)cc1` [2-morpholino-4,5-diphenylthiazole]: the “platelet aggregation inhibiting effect (in words)” value in the assay with platelet aggregation was “platelet aggregation inhibiting effect”. Further, the “hypocholesterolemic effect (in words)” value in assay [1] was “hypocholesterolemic effect”. In assay [2], the “antiinflammatory and analgesic effects (in words)” value is “weak or scarcely any”.
As for `O=S(=O)(Nc1nc(-c2ccccc2)c(-c2ccccc2)s1)C(F)(F)F` [Ex. 1, 2-trifluoromethanesulfonylamino-4,5-diphenylthlazole], the Inhibition ratio in assay [3] came out at 44.9%; in assay [4] it was 41.3%; in assay [5] (0.003 mg/kg), 44.2%; in assay [6], 36.6%; in assay [7], 24.6%; on prostaglandin synthetase, 45.5%. For the same compound, the Inhibition ratio in the assay with biosynthesis of 5-HETE was determined as 40.5%.
As to `COc1ccc(-c2nc(NS(=O)(=O)C(F)(F)F)sc2-c2ccccc2)cc1` [Ex. 10], the Inhibition ratio was 46.8% in assay [3]; 52.8% in assay [4]; 50.7% in assay [5] (0.003 mg/kg); 45.6% in assay [6]; 46.1% in [7]; 57.2% on prostaglandin synthetase. Also, in the assay on biosynthesis of 5-HETE, the Inhibition ratio was found to be 45.1%.
As to `O=[N+]([O-])c1ccc(-c2sc(NS(=O)(=O)C(F)(F)F)nc2-c2ccccc2)cc1` [Ex. 17], the Inhibition ratio is listed as 23.9% in [3]; 36.6% in [4]; 37.1% in [5] (0.003 mg/kg); 35.3% in assay [6]; 36.3% in [7]; 48.1% at prostaglandin synthetase. Further, the Inhibition ratio in the assay with biosynthesis of 5-HETE came out at 47.3%.
`COc1ccc(-c2sc(NS(=O)(=O)C(F)(F)F)nc2-c2ccccc2)cc1` [Ex. 32]: the Inhibition ratio is recorded as 52.3% in assay [3]; 48.1% in assay [4]; 50.4% in [5] (0.003 mg/kg); 34.6% in [6]; 28.6% in [7]; 52.2% on prostaglandin synthetase. The Inhibition ratio with biosynthesis of 5-HETE is 44.8%.
`O=S(=O)(Nc1nc(-c2ccccc2)c(-c2ccc(F)cc2)s1)C(F)(F)F` [Ex. 37]: the Inhibition ratio in [3] was 56.2%; in [4], 46.4%; in [5] (0.003 mg/kg), 49.8%; in [6] it was 44.9%; in [7], 18.1%; at prostaglandin synthetase, 43.9%. For the same compound, the Inhibition ratio in the assay with biosynthesis of 5-HETE is given as 48.7%.
Consider `CC(Cc1ccc(O)c(O)c1)C(C)Cc1ccc(O)c(O)c1` (centres unmarked) [NDGA, nordihydroguairetic acid, reference compound], for which, in the assay with biosynthesis of 5-HETE, the Inhibition ratio is 43.0%.
Take `COc1ccc2c(c1)c(CC(=O)O)c(C)n2C(=O)c1ccc(Cl)cc1` [indomethacin, reference compound]: the Inhibition ratio in assay [4] turned out to be 47.4%; in [5] (0.03 mg/kg), 44.7%.
